Earlier results, collected in patent publication US20170326065A1, “METHODS AND COMPOSITION FOR TREATMENT OF CARDIOVASCULAR CONDITIONS” (Ezra Pharma LLC, priority 2016, published 2017).

T1/2 alpha phase of elimination (biphasic elimination, rapid alpha phase): 1 to 2 h
T1/2 beta phase of elimination (biphasic elimination, slow beta phase, in h): 7-8
peak plasma concentration reduced to (by 12 hours, marketed immediate release formulation): approximately 65%
absolute bioavailability (oral administration, printed range (10-35%)): about 25%
half-life (valsartan): about 6 hours
Tmax (valsartan, oral): 2 to 4 h
Structure (SMILES): CCCCC(=O)N(Cc1ccc(-c2ccccc2-c2nnn[nH]2)cc1)[C@H](C(=O)O)C(C)C [valsartan]
